The target of assay [1] is T1, WDR5 (Homo sapiens, UniProt P61964). As to the kind of experiment: Surface Plasmon Resonance (SPR) assay. The class given is binding. More on the design: Full length WDR5 with an N-terminal His tag and C-terminal AviTag; His tag (N); made in house; host or cells: E. coli. The protocol:
Exemplary compounds of the application were dissolved in 100% DMSO at 10 mM, assayed fresh, and then stored at −20° C. for repeat studies and other experiments. Full length WDR5 with an N-terminal His tag and C-terminal AviTag (Avidity Inc.) was expressed in E. coli with coexpression of BirA to biotin label the protein in vivo. Purification was via Ni-NTA.
SPR studies were performed using a Biacore™ T200 instrument (GE Health Sciences Inc.). Biotinylated WDR5 protein (approximately 3000RU) was stably captured to streptavidin coupled SA chips according to the manufacture's protocol (GE Health Sciences Inc.). The running buffer used was HBS-EP (20 mM Hepes pH 7.4, 150 mM NaCl, 3 mM EDTA, 0.05% P-20) plus 5% DMSO with a flow rate of 40 μl/min. For SPR analysis, 5 different concentrations of each exemplary compound of the application were sprayed into 96 or 384 well plates using an HP D300 digital dispenser. The concentration ranged from about 195 nM to about 12 nM in a two-fold series. […] Curve fitting and KD calculations were performed with the Biacore T200 Evalutation software (GE Health Sciences Inc).

In assay [2] the target is T1, WDR5. Nature of the assay: Fluorescence Polarization (FP) binding assay. The method, then:
H3 (1-15) ([…]), and 9-Ala-FAM ((Ac)-[…]-(Ahx-Ahx)-K(5,6-FAM)) (where Ahx represents 6 amino hexanoic acid linkers) peptides for WDR5 were synthesized, N-terminal-labeled with isothiocyanate-fluorescein, and purified by Tufts University Core Services (Boston, Mass.). Compound binding assays were performed at a constant labeled peptide concentration of 30 or 20 nM for H3 (1-15) and 9-Ala-FAM respectively. WDR5 concentrations of 0.3 μM for H3 (1-15) and 0.05 μM for 9-Ala-FAM were used. For both the H3 (1-15) and 9-Ala-FAM peptides, 80 mM sodium phosphate buffer (pH 6.5), 20 mM KCl, and 0.008% Triton X-100 was used. For the H3 (1-15) peptide, FP assays were measured in 10 μl aliquots in 384-well Axygen plates using a Synergy 4 microplate reader (BioTek) with an excitation wavelength of 485 nm and emission wavelength of 528 nm. For the 9-Ala-FAM peptide, FP assays were measured in 125 μl aliquots in 96 well Microfluor plates using a ViewLux instrument (Perkin Elmer) with an excitation wavelength of 480 nm and emission wavelength of 540 nm. To determine Kdsp values, the data were fit to a hyperbolic function using Sigma Plot software (Systat Software). The Kdisp values represent the average of quadruplicate measurements.
On the technique in general: In fluorescence polarisation assays a small probe gives low polarisation when free and higher when bound to something large.

The mark [3] stands for this setting: Table 2, effect of difluoro substitution, read-out: KD (SPR).

Each structure is given as a SMILES string. Where two headings read alike, the source gives them in different places.

The term Kd denotes a measure of binding affinity in units of concentration. As a reminder, the IC50 is the midpoint of a concentration-inhibition curve.

As to `C[C@@H]1CN(c2ncc(-c3c(F)cc(N4C[C@@H](C)N(C)[C@@H](C)C4)c(NC(=O)c4cn(C)c(=O)cc4C(F)(F)F)c3F)cn2)CCO1` [Example 17, N-(2,4-difluoro-3-(2-((R)-2-methylmorpholino)pyrimidin-5-yl)-6-((3S,5R)-3,4,5-trimethylpiperazin-1-yl)phenyl)-1-methyl-6-oxo-4-(trifluoromethyl)-1,6-dihydropyridine-3-carboxamide formic acid], the dissociation constant (Kd) on WDR5 [1] (read-out: SPR Kd) is 1.75 nM. The IC50 at WDR5 [2] amounted to 10.1 nM.

On to `C[C@@H]1CN(c2cc(F)c(C3=CCCN(C(=O)C(C)(C)C)C3)c(F)c2NC(=O)c2c[nH]c(=O)cc2C(F)(F)F)C[C@H](C)N1C` [Example 19, N-(2,4-difluoro-3-(1-pivaloyl-1,2,5,6-tetrahydropyridin-3-yl)-6-((3S,5R)-3,4,5-trimethylpiperazin-1-yl)phenyl)-6-oxo-4-(trifluoromethyl)-1,6-dihydropyridine-3-carboxamide], for which, on WDR5 [1] (read-out: SPR Kd), the Kd was determined as 5.31 nM. Further, the IC50 at WDR5 [2] is 31.6 nM.

Take `CC(C)OC(=O)N1CCC=C(c2c(F)cc(N3C[C@@H](C)N(C)[C@@H](C)C3)c(NC(=O)c3c[nH]c(=O)cc3C(F)F)c2F)C1` [Example 23, Isopropyl 5-(3-(4-(difluoromethyl)-6-oxo-1,6-dihydropyridine-3-carboxamido)-2,6-difluoro-4-((3S,5R)-3,4,5-trimethylpiperazin-1-yl)phenyl)-3,6-dihydropyridine-1(2H)-carboxylate]: on WDR5 [1] (read-out: SPR Kd), the Kd is 2.83 nM. Moreover, the IC50 on WDR5 [2] stood at 31.4 nM.

On to `C[C@@H]1CN(c2ncc(-c3ccc(N4C[C@@H](C)N(C)[C@@H](C)C4)c(NC(=O)c4c[nH]c(=O)cc4C(F)(F)F)c3)cn2)C[C@H](C)O1` [reference compound], for which the Kd on WDR5 [1] (setting [3]) is 2.9 nM.

Regarding `C[C@@H]1CN(c2cc(F)c(C3=CCCN(c4ncccn4)C3)c(F)c2NC(=O)c2c[nH]c(=O)cc2C(F)F)C[C@H](C)N1C` [Example 21, N-(2,4-difluoro-3-(1-(pyrimidin-2-yl)-1,2,5,6-tetrahydropyridin-3-yl)-6-((3S,5R)-3,4,5-trimethylpiperazin-1-yl)phenyl)-4-(difluoromethyl)-6-oxo-1,6-dihydropyridine-3-carboxamide], the Kd on WDR5 [1] (read-out: SPR Kd) turned out to be 4.5 nM. Besides, the IC50 at WDR5 [2] was determined as 37.1 nM.

Take `C[C@@H]1CN(c2ncc(-c3cc(F)c(N4C[C@@H](C)N(C)[C@@H](C)C4)c(NC(=O)c4c[nH]c(=O)cc4C(F)(F)F)c3)cn2)C[C@H](C)O1` [reference compound]: the Kd on WDR5 [1] (setting [3]) was 48 nM.

Turning to `COCCOc1ccc(-c2c(F)cc(N3C[C@@H](C)N(C)[C@@H](C)C3)c(NC(=O)c3c[nH]c(=O)cc3C(F)(F)F)c2F)cn1` [Example 6, N-(2,4-difluoro-3-(6-(2-methoxyethoxy)pyridin-3-yl)-6-((3S,5R)-3,4,5-trimethylpiperazin-1-yl)phenyl)-6-oxo-4-(trifluoromethyl)-1,6-dihydropyridine-3-carboxamide], at WDR5 [1] (read-out: SPR Kd), the Kd came to 2.83 nM. The IC50 at WDR5 [2] was determined as 32.9 nM.

Regarding `C[C@@H]1CN(c2ncc(-c3ccc(N4C[C@@H](C)N(C)[C@@H](C)C4)c(NC(=O)c4c[nH]c(=O)cc4C(F)(F)F)c3F)cn2)C[C@H](C)O1` [reference compound], on WDR5 [1] (setting [3]), the Kd amounted to 1.8 nM.

For `C[C@@H]1CN(c2cc(F)c(-c3ccc(OCC4CC4)cc3)c(F)c2NC(=O)c2c[nH]c(=O)cc2C(F)(F)F)C[C@H](C)N1C` [Example 7, N-(4′-(cyclopropylmethoxy)-2,6-difluoro-4-((3S,5R)-3,4,5-trimethylpiperazin-1-yl)-[1,1′-biphenyl]-3-yl)-6-oxo-4-(trifluoromethyl)-1,6-dihydropyridine-3-carboxamide], the IC50 at WDR5 [2] came to 17.9 nM.

Regarding `C[C@@H]1CN(c2cc(F)c(-c3ccc(OCC4CC4)nc3)c(F)c2NC(=O)c2c[nH]c(=O)cc2C(F)(F)F)C[C@H](C)N1C` [Example 1, N-(3-(6-(cycloproylmethoxy)pyridin-3-yl)-2,4-difluoro-6-((3S,5R)-3,4,5-trimethylpiperazin-1-yl)phenyl)-6-oxo-4-(trifluoromethyl)-1,6-dihydropyridine-3-carboxamide], on WDR5 [1] (read-out: SPR Kd), the Kd came to 0.59 nM.

For the origin of these results see patent US20200385371A1 (Propellon Therapeutics Inc., priority 2017, published 2020).
